According to publication PMC12094020, “Elucidation of novel turnagainolides and their biosynthetic gene cluster in Bacillus subtilis” (Applied and Environmental Microbiology, 2025):
“Also recorded” adds a separate entry of the source.

Experiments:
S. aureus biofilm = assay: biofilm inhibition experiment (crystal violet); assay type: cell-based; settings: overnight 37°C, TSB, OD570
Procedure: S. aureus was cultured overnight in 3 mL of TSB medium. The next morning, the culture was diluted to an OD570 of 0.5 with fresh TSB medium and then further diluted 1,000-fold to achieve a final concentration of 1 × 10^6 CFU/mL. Aliquots of 100 µL of the diluted culture were transferred to individual wells of a 96-well plate. Test compounds were added to the first well of each row at a concentration of 800 µg/mL, followed by twofold serial dilutions across the row. The plate was incubated overnight at 37°C. The medium was subsequently discarded, and the wells were washed three times with PBS (KH2PO4 0.27 g, Na2HPO4 1.42 g, NaCl 8 g, KCl 0.2 g in 1 L deionized water, pH 7.4). Next, 200 µL of methanol was added to each well to fix the biofilm, and the plate was incubated for 15 minutes. The methanol was then removed, and the wells were stained with 0.1% crystal violet for 5 minutes. Excess dye was washed off, and the plate was air-dried. To dissolve the bound stain, 200 µL of glacial acetic acid was added to each well, and the plate was shaken for 20 minutes. The absorbance at OD570 was measured using a microplate reader (Thermo Fisher Scientific, Varioskan LUX).

[1] = system: quorum-sensing in Staphylococcus aureus; settings: ref 5 (Igarashi et al.); read-out: quorum-sensing inhibition in Staphylococcus aureus, IC50; cited from earlier work
Source text: (§1) Turnagainolides are a distinctive family of cyclic depsipeptides containing one (E)-3-hydroxy-5-phenylpent-4-enoic acid (Hppa) and four proteinogenic amino acids (Fig. S1). As the first member of this family, compound EGM-556 was discovered from the marine fungus Microascus sp. EGM-556 following the introduction of the histone deacetylase inhibitor suberoylanilide hydroxamic acid to activate a silent biosynthetic gene cluster. However, its stereochemistry was only partially resolved, and no bioactivity was reported ([3]). Subsequently, turnagainolides A and B were identified from Bacillus sp., ...

SHIP1 enzyme = settings: in vitro; cited from earlier work
Source text: as §1, with “([3]).” for “([3]). Subsequently, turnagainolides A and B were identified from Bacillus sp., ...”

Candida albicans = settings: cited from earlier work
Source text: as §1

Escherichia coli = settings: cited from earlier work
Source text: as §1

S. aureus = settings: cited from earlier work
Source text: as §1

bacteria = system: bacteria; set-up: method as in doi:10.1016/j.cclet.2016.03.018; settings: compared among congeners; cited from earlier work

Substance	IC50 [1] [nM]	activation of SHIP1 enzyme (SHIP1 enzyme)	anti-biofilm activity at concentrations above 100 µg/mL (S. aureus biofilm)	further results
Turnagainolide A [Compound 1]	800	only turnagainolide B activates SHIP1		anti-biofilm activity at 200 µg/mL (S. aureus biofilm; 200 µg/mL): no activity; anti-biofilm activity at 400 µg/mL (S. aureus biofilm; 400 µg/mL): weak inhibitory activity
Turnagainolide B [Compound 2]		activates SHIP1; also recorded: activator of the SHIP1 enzyme	slightly stronger inhibition; also recorded: weak inhibition	
Turnagainolide D [Compound 3]			slightly stronger inhibition; also recorded: weak inhibition	
arthroamide [reference compound]	300			
turnagainolide C				anti-microbial activity against Candida albicans (Candida albicans): anti-microbial activity; anti-microbial activity against Escherichia coli (Escherichia coli): anti-microbial activity; anti-microbial activity against S. aureus (S. aureus): anti-microbial activity; antibacterial activity (bacteria): only congener that exhibits antibacterial activity
